Drawing on patent US20250074912A1, “IMPROVED PROCESS FOR THE PREPARATION OF UPADACITINIB” (MSN LABORATORIES PRIVATE LIMITED, R&D CENTER, priority 2022, published 2025), this text covers stability on storage for 1 compound.

This data set can be described thus: Storage stability of amorphous Upadacitinib. Type of data set: physicochemical.

On to `CC[C@@H]1CN(C(=O)NCC(F)(F)F)C[C@@H]1c1cnc2cnc3[nH]ccc3n12` [Amorphous form of Upadacitinib, (3S,4R)-3-ethyl-4-(3H-imidazo[1,2-a]pyrrolo[2,3-e]pyrazin-8-yl)-N-(2,2,2-trifluoroethyl)pyrrolidine-1-carboxamide], for which the stability on storage result by setting is: (12 months at 25° C./60+5% relative humidity) “stable”; (12 months at 40±2° C./75±5% relative humidity) “stable”.
